Laboratory results published in patent US6858402B2 (The Regents of the University of California, priority 1996, dated 2005).
“And” between values parts separate entries of the source, which are not always exact repeats. Equal entries are not always repeated. Numbered stars: 1 amine (or outer) side, 2 acyl side, 3 side chain; on linkers, the order of the positions; unused ones are H or OH. Bridge positions count the residues as written; N and C are the ends. Square brackets hold non-standard residues; d marks the D form. Peptide text beside a SMILES is read from it. I, II: the chains in the order shown. Actinocin(9to1) = Cc1c2oc3c(C)ccc(C(=O)[*:1])c3nc-2c(C(=O)[*:2])c(N)c1=O; NMeV = CN[C@H](C(=O)O)C(C)C; Sar = CNCC(=O)O

Columns and labels:
TRRE = assay: Effect of protease inhibitors and divalent metal ions on partially-purified TRRE activity; type: biochemical, human; conditions: for effect on TRRE activity: partially-purified TRRE
Procedure: C75R cells and COS-1 cells were seeded into 24-well culture plates at a density of 2.5×10^5 cells/ml/well and incubated overnight (for 12 to 16 hours) in 5% CO2 at 37° C. […] (corresponding to A and C mentioned below, respectively). Simultaneously, C75R cells in 24-well plates were also incubated with 300 μl of fresh medium or buffer (corresponding to B mentioned below).
The precipitate was pelleted by centrifugation at 10,000×g for 30 min and resuspended in PBS in approximately twice the volume of the pellet. This solution was then dialyzed at 4° C. against 10 mM Tris-HCl, 60 mM NaCl, pH 7.0. This sample was loaded on an anion-exchange chromatography, Diethylaminoethyl (DEAE)-Sephadex A-25 column (Pharmacia Biotech) (2.5×10 cm) previously equilibrated with 50 mM Tris-HCl, 60 mM NaCl, pH 8.0.
Protease inhibitors were purchased from Sigma Chemical (St. Louis, Mo.), including phenylmethylsulfonyl fluoride (PMSF), 4-(2-aminoethyl)-benzenesulfonyl fluoride (AEBSF), 3,4-dichloroisocoumarin (3,4-DCI), N-α-tosyl-L-lysine chloromethyl ketone (TLCK), N-tosyl-L-phenylalanine chloromethyl ketone (TPCK), ethylenediaminetetraacetic acid (EDTA), ethyleneglycol bis (2-aminoethyl ether) tetraacetic acid (EGTA), 1,10-phenanthroline, and phosphoramidon. These inhibitors can be divided into the following classes: (i) serine protease inhibitors (4 mM PMSF, 0.5 mM AEBSF, and 0.1 mM 3,4-DCI); (ii) serine and cysteine protease inhibitors (0.1 mM TLCK and TPCK); (iii) chelating agents (2 mM EDTA, EGTA, and 1,10-phenanthroline); (iv) a metallo-endoprotease inhibitor (0.5 mM phosphoramidon); and (v) divalent heavy metal ions (2 mM CaCl2, MgCl2, MnCl2, ZnCl2, CoCl2, CuCl2, and FeCl2). […] The percent activity remaining (% control) was expressed relative to the control.
The percent activity remaining (% control) was calculated as above.

THP-1 cells [1] = assay: Effect of inhibitors co-incubated with PMA on TRRE production; type: cell-based, human
From the text: Several inhibitors including cycloheximide (Chx) (an inhibitor of protein synthesis), actinomycin D (ActD) (an inhibitor of RNA synthesis), N-ethylmaleimide (NEM) (an inhibitor of membrane internalization and movement), cytochalasin B (CytB) (an inhibitor of microfilament formation), and colchicine (Col) (an inhibitor of microtubule formation) were purchased from Sigma Chemical (St. Louis, Mo.). THP-1 cells at a density of 1×10^6 cells/ml in RPMI-1640/1% FCS with 10^−6 M PMA was co-stimulated along with 10 μg/ml Chx, 1 μg/ml ActD, 1 mM NEM, 0.1 mM CytB, or 0.1 mM Col for 30 min at 37° C. in 5% CO2. Following centrifugation at 400×g for 5 min, the supernatant was discarded and the cells were washed once with serum-free medium. The cells were incubated for an additional 2 hours at the same density (1×10^6 cells/ml) in PMA-free RPMI-1640 with corresponding inhibitors.

THP-1 cells [2] = assay: Induction of TRRE by cytokines and hormones; type: cell-based, human; conditions: 2 hours stimulation, insulin 10^−7 M, IL-1β 10 ng/ml, IL-6 100 ng/ml; for induction of TRRE activity: IL-10 100 ng/ml, epinephrine 10^−6 M
[3] = 2 mM, preincubated 37° C. 30 min (Table 5)
[4] = 0.1 mM, preincubated 37° C. 30 min (Table 5)
[5] = 0.5 mM, preincubated 37° C. 30 min (Table 5)

c1cnc2c(c1)ccc1cccnc12 [1,10-Phenanthroline, 1,10-phenanthroline]
% Control of TRRE activity (TRRE; 2 mM (Table 6)): 47 ± 9% | % Control of TRRE activity (TRRE; [3]): 41 ± 6% | % Control of TRRE activity (TRRE; 2 mM, preincubated 37° C. 30 min (Table 5), listed as 1,10-phenanthroline): 41%

O=c1oc(Cl)c(Cl)c2ccccc12 [3,4-DCI, 3,4-dichloroisocoumarin]
% Control of TRRE activity (TRRE; [4]): 108 ± 4% | effect on TRRE activity (TRRE): no effect

NCCc1ccc(S(=O)(=O)F)cc1 [AEBSF, 4-(2-aminoethyl)-benzenesulfonyl fluoride]
% Control of TRRE activity (TRRE; [5]): 92 ± 8% | effect on TRRE activity (TRRE): no effect

Cc1c2oc3c(C)ccc(C(=O)N[C@@H]4C(=O)N[C@H](C(C)C)C(=O)N5CCC[C@H]5C(=O)N(C)CC(=O)N(C)[C@@H](C(C)C)C(=O)O[C@@H]4C)c3nc-2c(C(=O)N[C@@H]2C(=O)N[C@H](C(C)C)C(=O)N3CCC[C@H]3C(=O)N(C)CC(=O)N(C)[C@@H](C(C)C)C(=O)O[C@@H]2C)c(N)c1=O [Actinomycin D, actinomycin D] (I: T[dV]P[Sar][NMeV] / II: T[dV]P[Sar][NMeV]; ester I:1-I:C, II:1-II:C; linker I:N-II:N via Actinocin(9to1))
% of TRRE production (THP-1 cells [1]; inhibitor 1 μg/ml with 10^−6 M PMA): 104% | % of TRRE production (THP-1 cells [1]; inhibitor 1 μg/ml with 10^−6 M PMA, listed as ActD): 97%

[Ca+2].[Cl-].[Cl-] [Ca^2+, CaCl2]
% Control of TRRE activity (TRRE; [3]): 151% and 151 ± 23% | % Control of TRRE activity (TRRE; 4 mM (Table 6)): 189±4%

[Cl-].[Cl-].[Co+2] [Co^2+, CoCl2]
% Control of TRRE activity (TRRE; [3]): 123% and 123 ± 15%

[Cl][Cu][Cl] [Cu^2+, CuCl2]
% Control of TRRE activity (TRRE; [3]): 47% and 47 ± 21%

C[C@@H]1C[C@@H]([C@H](O)CC2CC(=O)NC(=O)C2)C(=O)[C@@H](C)C1 [Cycloheximide, cycloheximide]
% of TRRE production (THP-1 cells [1]; inhibitor 10 μg/ml with 10^−6 M PMA): 97% | % of TRRE production (THP-1 cells [1]; inhibitor 10 μg/ml with 10^−6 M PMA, listed as Chx): 104%

O=C(O)CN(CCN(CC(=O)O)CC(=O)O)CC(=O)O [EDTA, ethylenediaminetetraacetic acid]
% Control of TRRE activity (TRRE; [3]): 67% and 67 ± 7%

O=C(O)CN(CCOCCOCCN(CC(=O)O)CC(=O)O)CC(=O)O [EGTA, ethyleneglycol bis (2-aminoethyl ether) tetraacetic acid]
% Control of TRRE activity (TRRE; [3]): 73% and 73 ± 4%

[Cl][Fe][Cl] [Fe^2+, FeCl2]
% Control of TRRE activity (TRRE; [3]): 98 ± 8%

[Cl-].[Cl-].[Mg+2] [Mg^2+, MgCl2]
% Control of TRRE activity (TRRE; [3]): 127% and 127 ± 9%

[Cl][Mn][Cl] [Mn^2+, MnCl2]
% Control of TRRE activity (TRRE; [3]): 157% and 157 ± 33%

CCN1C(=O)C=CC1=O [N-ethyl-maleimide, N-ethylmaleimide]
% of TRRE production (THP-1 cells [1]; inhibitor 1 mM with 10^−6 M PMA): 17%

O=S(=O)(F)Cc1ccccc1 [PMSF, phenylmethylsulfonyl fluoride]
% Control of TRRE activity (TRRE; 4 mM, preincubated 37° C. 30 min (Table 5)): 116 ± 4% | effect on TRRE activity (TRRE): no effect

CC(C)C[C@H](NP(=O)(O)O[C@@H]1O[C@@H](C)[C@H](O)[C@@H](O)[C@H]1O)C(=O)N[C@@H](Cc1c[nH]c2ccccc12)C(=O)O [Phosphoramidon, phosphoramidon]
% Control of TRRE activity (TRRE; [5]): 84 ± 13%

Cc1ccc(S(=O)(=O)N[C@@H](CCCCN)C(=O)CCl)cc1 [TLCK, N-α-tosyl-L-lysine chloromethyl ketone]
% Control of TRRE activity (TRRE; [4]): 108 ± 5% | effect on TRRE activity (TRRE): no effect

[Cl-].[Cl-].[Zn+2] [Zn^2+, ZnCl2]
% Control of TRRE activity (TRRE; 0.1 mM (Table 6)): 122±6% | % Control of TRRE activity (TRRE; [3]): 23% and 23 ± 15%

CNC[C@H](O)c1ccc(O)c(O)c1 [epinephrine]
induction of TRRE activity (THP-1 cells [2]): induced TRRE activity

IL-1β: cytokine
induction of TRRE activity (THP-1 cells [2]): no apparent TRRE activity | induction of sTNF-R (THP-1 cells [2]): induced sTNF-R

IL-6: cytokine
induction of TRRE activity (THP-1 cells [2]): no apparent TRRE activity | induction of sTNF-R (THP-1 cells [2]): induced sTNF-R

N-tosyl-L-phenylalanine chloromethyl ketone [TPCK]
% Control of TRRE activity (TRRE; [4]): 107 ± 7% | effect on TRRE activity (TRRE): no effect

insulin: hormone
induction of TRRE activity (THP-1 cells [2]): no apparent TRRE activity | induction of sTNF-R (THP-1 cells [2]): induced sTNF-R
